Reference: patent publication US8575163B2, “Pyrrolopyridinylpyrimidin-2-ylamine derivatives” (Merck Patent GmbH, priority 2009, dated 2013)
Read-outs that look alike come from different tables or passages of the source.

Experiments:
PDK1 = target: T1, PDK1 (Homo sapiens, UniProt O15530); assay: Test for the inhibition of PDK1 (flashplate, 33P-ATP); format: biochemical; settings: His6-PDK1 3.4 nM, 4 μM ATP, 30° C., 60 min
T1 construct: His6 (N)
T1 sequence (O15530 51-556 limits assumed): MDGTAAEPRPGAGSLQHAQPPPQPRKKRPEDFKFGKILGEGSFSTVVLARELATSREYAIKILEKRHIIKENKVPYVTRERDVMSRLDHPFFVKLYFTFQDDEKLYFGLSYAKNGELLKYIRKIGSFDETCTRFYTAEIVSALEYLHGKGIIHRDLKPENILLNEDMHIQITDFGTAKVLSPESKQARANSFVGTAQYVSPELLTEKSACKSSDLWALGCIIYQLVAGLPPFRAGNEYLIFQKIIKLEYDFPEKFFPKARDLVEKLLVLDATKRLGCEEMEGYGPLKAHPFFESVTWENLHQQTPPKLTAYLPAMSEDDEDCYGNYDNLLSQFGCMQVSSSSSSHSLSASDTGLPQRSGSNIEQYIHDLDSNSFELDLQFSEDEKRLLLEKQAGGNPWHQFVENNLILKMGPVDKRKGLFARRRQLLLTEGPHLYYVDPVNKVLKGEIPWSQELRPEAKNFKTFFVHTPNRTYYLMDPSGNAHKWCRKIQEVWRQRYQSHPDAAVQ
Outline: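 His6-PDK1(1-50) (3.4 nM) and a biotinylated peptide substrate (400 nM) were incubated 60 min at 30° C with 4 μM ATP containing ^33P-ATP and test compound. Incorporated radioactivity was counted after subtracting a 100 nM staurosporine blank and expressed as % of control; IC50 derived from these.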

[1] = test system: PDK1 kinase activity (phospho-T308-PKB) in PC3 cells; assay: Cellular testing of PDK1 kinase inhibitors in PC3 cells (Luminex, phospho-T308-PKB); format: cell-based; settings: 30 min incubation, serum-free, read-out: IC50 PC3 cells [P-PKB T308]
Experimental: Method for the Cellular Testing of PDK1 Kinase Inhibitors in PC3 Cells.
The cellular assay for the determination of the PDK1 kinase activity is carried out as a Luminex assay in the 96-well format. PC3 cells are shown at 20,000 cells per well in 100 μl of medium (45% of […]/45% of Ham's F12/10% of FCS) and incubated on the following day for 30 min with a serial dilution of the test substance (7 concentrations) under serum-free conditions. The cells are subsequently lysed using 90 μl of lysis buffer (20 mM tris/HCl pH 8.0, 150 mM NaCl, 1% of NP40, 10% of glycerol, 1% of phosphatase inhibitor I, 1% of phosphatase inhibitor II, 0.1% of protease inhibitor cocktail III, 0.01% of benzonase) per well, and the lysates are separated off from insoluble cell constituents by means of centrifugation through a 96-well filter plate (0.65 μm). The lysates are incubated overnight at 4° C. with shaking with Luminex beads to which an anti-total PKB antibody is coupled. The detection is carried out on the following day by addition of a phospho-T308-PKB antibody and a species-specific peroxidase-labelled secondary antibody. The detection of phospho-T308-PKB is carried out by measurement in a Luminex100 instrument by determination of 100 events per cavity in a measurement time of 60 sec. As pharmacological blank, the signals obtained from cells which have been treated with 10 μM staurosporin are subtracted from all other batches. The control value used for maximum phosphorylation of PKB on T308 are the signals from cells which have only been treated with the solvent (0.3% of DMSO). The values of the batches treated with test substance are calculated therefrom as percentage of control, and IC50 values are determined by means of RS1.

SMILES | IC50 (PDK1) | IC50 ([1]; Homo sapiens, PC-3, 0.5 h) | IC50 [1]
Cn1cc(-c2cnc3[nH]cc(-c4cc(C(C)(O)c5cccc(F)c5)nc(N)n4)c3c2)cn1 (stereo not drawn) [A105, 1-{2-amino-6-[5-(1-methyl-1H-pyrazol-4-yl)-1H-pyrrolo[2,3-b]pyridin-3-yl]-pyrimidin-4-yl}-1-(3-fluorophenyl)ethanol] | 13 nM | 110 nM | –
CCC[C@](O)(c1ccncc1)c1cc(-c2c[nH]c3ncc(-c4cnn(C)c4)cc23)nc(N)n1 (single isomer, unassigned) [A133] | 48 nM | 1900 nM | –
CCC(O)(c1ccncc1)c1cc(-c2c[nH]c3ncc(-c4cnn(CC(=O)N5CCCCC5)c4)cc23)nc(N)n1 (stereo not drawn) [A50, 2-(4-{3-[2-amino-6-(1-hydroxy-1-pyridin-4-ylpropyl)pyrimidin-4-yl]-1H-pyrrolo[2,3-b]pyridin-5-yl}pyrazol-1-yl)-1-piperidin-1-ylethanone] | 4 nM | 519 nM | –
CCCC(O)(c1cccc(F)c1)c1cc(-c2c[nH]c3ncc(-c4cnn(C)c4)cc23)nc(N)n1 (stereo not drawn) [A116, 1-{2-amino-6-[5-(1-methyl-1H-pyrazol-4-yl)-1H-pyrrolo[2,3-b]pyridin-3-yl]-pyrimidin-4-yl}-1-(3-fluorophenyl)butan-1-ol] | 44 nM | 280 nM | –
Cn1cc(-c2cnc3[nH]cc(-c4cc(C(C)(O)c5ccncc5)nc(N)n4)c3c2)cn1 (single isomer, unassigned) [A42, 1-{2-amino-6-[5-(1-methyl-1H-pyrazol-4-yl)-1H-pyrrolo[2,3-b]pyridin-3-yl]-pyrimidin-4-yl}-1-pyridin-4-ylethanol] | 3.2 nM | – | 950 nM
CC[C@@](O)(c1ccccc1)c1cc(-c2c[nH]c3ncc(-c4cnn(CC(=O)N5CCCCC5)c4)cc23)nc(N)n1 (single isomer, unassigned) [A136] | 210 nM | 870 nM | –
COc1ccc(C(C)(O)c2cc(-c3c[nH]c4ncc(-c5cnn(C)c5)cc34)nc(N)n2)cn1 (stereo not drawn) [A112, 1-{2-amino-6-[5-(1-methyl-1H-pyrazol-4-yl)-1H-pyrrolo[2,3-b]pyridin-3-yl]-pyrimidin-4-yl}-1-(6-methoxypyridin-3-yl)ethanol] | 120 nM | 1300 nM | –
CC(C)C(O)(c1cccc(F)c1)c1cc(-c2c[nH]c3ncc(-c4cnn(C)c4)cc23)nc(N)n1 (stereo not drawn) [A115, 1-{2-amino-6-[5-(1-methyl-1H-pyrazol-4-yl)-1H-pyrrolo[2,3-b]pyridin-3-yl]-pyrimidin-4-yl}-1-(3-fluorophenyl)-2-methylpropan-1-ol] | 56 nM | 110 nM | –
CCC[C@@](O)(c1ccncc1)c1cc(-c2c[nH]c3ncc(-c4cnn(C)c4)cc23)nc(N)n1 (single isomer, unassigned) [A134] | 4.1 nM | 280 nM | –
Cn1cc(-c2cnc3[nH]cc(-c4cc(C(C)(O)c5ccncn5)nc(N)n4)c3c2)cn1 (stereo not drawn) [A113, 1-{2-amino-6-[5-(1-methyl-1H-pyrazol-4-yl)-1H-pyrrolo[2,3-b]pyridin-3-yl]-pyrimidin-4-yl}-1-pyrimidin-4-ylethanol] | 31 nM | 7300 nM | –
CCCC(O)(c1ccncc1)c1cc(-c2c[nH]c3ncc(-c4cnn(C)c4)cc23)nc(N)n1 (stereo not drawn) [A35, 1-{2-amino-6-[5-(1-methyl-1H-pyrazol-4-yl)-1H-pyrrolo[2,3-b]pyridin-3-yl]-pyrimidin-4-yl}-1-pyridin-4-ylbutan-1-ol] | 3 nM | 210 nM | –
COCOC(C)(c1cc(-c2c[nH]c3ncc(-c4cnn(C)c4)cc23)nc(N)n1)c1ccccc1C (stereo not drawn) [A18, 4-(1-methoxymethoxy-1-o-tolylethyl)-6-[5-(1-methyl-1H-pyrazol-4-yl)-1H-pyrrolo[2,3-b]pyridin-3-yl]pyrimidin-2-ylamine] | 32 nM | 69 nM | –
Cn1cc(-c2cnc3[nH]cc(-c4cc(C(C)(O)c5ccccc5F)nc(N)n4)c3c2)cn1 (single isomer, unassigned) [A104, 1-{2-amino-6-[5-(1-methyl-1H-pyrazol-4-yl)-1H-pyrrolo[2,3-b]pyridin-3-yl]-pyrimidin-4-yl}-1-(2-fluorophenyl)ethanol] | 16 nM | – | 41 nM
CC[C@@](O)(c1cc(-c2c[nH]c3ncc(-c4cnn(C)c4)cc23)nc(N)n1)c1cccc(F)c1F (single isomer, unassigned) [A126] | 66 nM | 2 nM | –
Cn1cc(-c2cnc3[nH]cc(-c4cc([C@](C)(O)c5cccc(Cl)c5F)nc(N)n4)c3c2)cn1 (single isomer, unassigned) [A138] | 39 nM | 8900 nM | –
CCCC(OCOC)(c1cccc(F)c1)c1cc(-c2c[nH]c3ncc(-c4cnn(C)c4)cc23)nc(N)n1 (stereo not drawn) [A117, 4-[1-(3-fluorophenyl)-1-methoxymethoxybutyl]-6-[5-(1-methyl-1H-pyrazol-4-yl)-1H-pyrrolo[2,3-b]pyridin-3-yl]pyrimidin-2-ylamine] | 450 nM | 980 nM | –
CC[C@@](O)(c1cc(-c2c[nH]c3ncc(-c4cnn(C)c4)cc23)nc(N)n1)c1ccncc1F (single isomer, unassigned) [A132] | 32 nM | 140 nM | –
COCO[C@](C)(c1ccncc1)c1cc(-c2c[nH]c3ncc(Br)cc23)nc(N)n1 (single isomer, unassigned) [A139] | 210 nM | 7000 nM | –
CC(C)[C@@](O)(c1ccccc1)c1cc(-c2c[nH]c3ncc(-c4cnn(C)c4)cc23)nc(N)n1 (single isomer, unassigned) [A127] | 28 nM | 11 nM | –
CCC[C@](O)(c1cc(-c2c[nH]c3ncc(-c4cnn(C)c4)cc23)nc(N)n1)c1ccccc1F (single isomer, unassigned) [A130] | 71 nM | 18 nM | –
CCC(O)(c1cc[n+]([O-])cc1)c1cc(-c2c[nH]c3ncc(-c4cnn(C)c4)cc23)nc(N)n1 (stereo not drawn) [A110, 1-{2-amino-6-[5-(1-methyl-1H-pyrazol-4-yl)-1H-pyrrolo[2,3-b]pyridin-3-yl]-pyrimidin-4-yl}-1-(1-oxypyridin-4-yl)propan-1-ol] | 5.4 nM | 8200 nM | –
CC(C)n1cc(-c2cnc3[nH]cc(-c4cc(C(C)(O)c5cccc(F)c5F)nc(N)n4)c3c2)cn1 (stereo not drawn) [A114, 1-{2-amino-6-[5-(1-isopropyl-1H-pyrazol-4-yl)-1H-pyrrolo[2,3-b]pyridin-3-yl]-pyrimidin-4-yl}-1-(2,3-difluorophenyl)ethanol] | 39 nM | 14 nM | –
Cn1cc(-c2cnc3[nH]cc(-c4cc(C(C)(O)c5ccccc5F)nc(N)n4)c3c2)cn1 (single isomer, unassigned) [A103, 1-{2-amino-6-[5-(1-methyl-1H-pyrazol-4-yl)-1H-pyrrolo[2,3-b]pyridin-3-yl]-pyrimidin-4-yl}-1-(2-fluorophenyl)ethanol] | 10 nM | 61 nM | –
CNc1nc(-c2c[nH]c3ncc(-c4cnn(CCO)c4)cc23)cc(C(C)(O)c2ccccc2)n1 (single isomer, unassigned) [A91, 1-(6-{5-[1-(2-hydroxyethyl)-1H-pyrazol-4-yl]-1H-pyrrolo[2,3-b]pyridin-3-yl}-2-methylaminopyrimidin-4-yl)-1-phenylethanol] | 50 nM | – | –
CC(O)(c1ccccc1)c1cc(-c2c[nH]c3ncc(-c4cnn(CCC(=O)N5CCCCC5)c4)cc23)nc(N)n1 (stereo not drawn) [A66, 3-(4-{3-[2-amino-6-(1-hydroxy-1-phenylethyl)pyrimidin-4-yl]-1H-pyrrolo-[2,3-b]pyridin-5-yl}pyrazol-1-yl)-1-piperidin-1-ylpropan-1-one] | 91 nM | – | –
